Test results published in patent publication US10633407B2, “14-membered ketolides and methods of their preparation and use” (President and Fellows of Harvard College, priority 2014, dated 2020).
≈ marks a conversion by molar mass, not a printed value. Read-outs that look alike come from different tables or passages of the source.

What was measured:
[1] = ester bond, chlorobenzene, 1.0 mM, 150.0 °C, 16.0 h
[2] = test system: E. faecalis Vancomycin-resistant; assay: CLSI broth dilution MIC determination; type: cell-based; conditions: Enterococcus faecalis, E. faecalis Vancomycin-resistant (UNT-039); read-out: MIC
P. aeruginosa MP-7 PAO1 = assay: CLSI broth dilution MIC determination; type: cell-based; conditions: Pseudomonas aeruginosa, read-out: MIC
[3] = test system: S. pneumoniae mef A genotype (second strain so labelled); assay: CLSI broth dilution MIC determination; type: cell-based; conditions: Streptococcus pneumoniae, second strain (MP-627 UNT-039), read-out: MIC
In short: (§1)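 Minimum inhibitory concentrations come from CLSI-standard broth dilution. The panel emphasises macrolide-resistance mechanisms, whose genotypes can be constitutive or inducible.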

S. aureus ATCC 29213 = assay: CLSI broth dilution MIC determination; type: cell-based; conditions: Staphylococcus aureus, ATCC29213; S. aureus ATCC 29213 (MP-12); read-out: MIC
In short: as §1

[4] = test system: S. aureus (MRSA) MP-513 ST-228 cErm (Clinical-cErm); assay: CLSI broth dilution MIC determination; type: cell-based; conditions: Staphylococcus aureus, read-out: MIC
In short: as §1

[5] = test system: E. coli MP-532 clinical-cErmB; assay: CLSI broth dilution MIC determination; type: cell-based; conditions: Escherichia coli
In short: as §1

S. aureus USA600, GISA = assay: CLSI broth dilution MIC determination; type: cell-based; conditions: Staphylococcus aureus; S. aureus USA600, GISA (MP-619 UNT-120); read-out: MIC
In short: as §1

[6] = test system: S. aureus MP-17 ATCCBAA-977 (BAA 977 iErm); assay: CLSI broth dilution MIC determination; type: cell-based; conditions: Staphylococcus aureus; S. aureus MP-17, ATCCBAA-977, iErm; read-out: MIC
In short: as §1

E. coli ATCC 25922 = assay: CLSI broth dilution MIC determination; type: cell-based; conditions: Escherichia coli, ATCC25922, E. coli ATCC 25922 (MP-4); read-out: MIC
In short: as §1

[7] = test system: E. coli MP-9 ATCC25922:tolC; assay: CLSI broth dilution MIC determination; type: cell-based; conditions: Escherichia coli, ATCC25922
In short: as §1

E. coli MP-541 clinical = assay: CLSI broth dilution MIC determination; type: cell-based; conditions: Escherichia coli, MP541CLINICAL, read-out: MIC
In short: as §1

S. aureus MRSA: USA100 = assay: CLSI broth dilution MIC determination; type: cell-based; conditions: Staphylococcus aureus; S. aureus MRSA: USA100 (MP-618 UNT-096); read-out: MIC
In short: as §1

[8] = test system: S. pneumoniae mef A genotype (first strain so labelled); assay: CLSI broth dilution MIC determination; type: cell-based; conditions: Streptococcus pneumoniae, first strain (MP-626 UNT-038)
In short: as §1

S. pneumoniae ATCC 49619 = assay: CLSI broth dilution MIC determination; type: cell-based; conditions: Streptococcus pneumoniae, ATCC49619, S. pneumoniae ATCC 49619 (MP-21); read-out: MIC
In short: as §1

S. aureus MRSA: USA300 = assay: CLSI broth dilution MIC determination; type: cell-based; conditions: Staphylococcus aureus; S. aureus MRSA: USA300 (MP-549, msr(a)); read-out: MIC
In short: as §1

S. aureus erm A genotype = assay: CLSI broth dilution MIC determination; type: cell-based; conditions: Staphylococcus aureus; S. aureus erm A genotype (MP-620 UNT-146); read-out: MIC
In short: as §1

[9] = test system: A. baumannii MP-576 Clinical-MDR; assay: CLSI broth dilution MIC determination; type: cell-based; conditions: Acinetobacter baumannii, read-out: MIC
P. aeruginosa ATCC 27853 = assay: CLSI broth dilution MIC determination; type: cell-based; conditions: Pseudomonas aeruginosa, ATCC27853; P. aeruginosa ATCC 27853 (MP-3); read-out: MIC
E. faecalis ATCC 29212 = assay: CLSI broth dilution MIC determination; type: cell-based; conditions: Enterococcus faecalis, ATCC29212, E. faecalis ATCC 29212 (MP-24); read-out: MIC
[10] = test system: S. pyogenes Macrolide-resistant; assay: CLSI broth dilution MIC determination; type: cell-based; conditions: Streptococcus pyogenes, S. pyogenes Macrolide-resistant (MP-625 UNT-014); read-out: MIC
K. pneumoniae ATCC 10031 = assay: CLSI broth dilution MIC determination; type: cell-based; conditions: Klebsiella pneumoniae, ATCC10031, K. pneumoniae ATCC 10031 (MP-14); read-out: MIC
A. baumannii ATCC 19606 = assay: CLSI broth dilution MIC determination; type: cell-based; conditions: Acinetobacter baumannii, ATCC19606; A. baumannii ATCC 19606 (MP-15); read-out: MIC
[11] = test system: P. aeruginosa MP-8 PAO1:mex (mex-oprM-deletion); assay: CLSI broth dilution MIC determination; type: cell-based; conditions: Pseudomonas aeruginosa, PAO1
[12] = test system: K. pneumoniae MP-548 clinical; assay: CLSI broth dilution MIC determination; type: cell-based; conditions: Klebsiella pneumoniae, MP548CLINICAL, read-out: MIC
[13] = test system: strains of B. subtilis, E. coli, S. aureus, S. pneumoniae, and H. influenzae, including several multidrug-resistant strains; assay: CLSI broth dilution MIC determination, whole panel of strains; type: cell-based; conditions: from MIC data, Tables B1-B13
Text: MIC data was collected for the novel macrolides that this platform has produced against over 21 unique strains of B. subtilis, E. coli, S. aureus, S. pneumoniae, and H. influenzae, including several multidrug-resistant strains, with a special focus on macrolide resistant mechanisms (vide supra). Azithromycin (Azithro) and Solithromycin (Solithro) were included as a control macrolides in many cases. CLSI standard procedures for broth dilution MIC determination were used. […] These genotypes can be constitutive or inducible.

[14] = test system: A. baumannii MP-577 Clinical-AZT low; assay: CLSI broth dilution MIC determination; type: cell-based; conditions: Acinetobacter baumannii, read-out: MIC
S. pyogenes ATCC 19615 = assay: CLSI broth dilution MIC determination; type: cell-based; conditions: Streptococcus pyogenes, ATCC19615, S. pyogenes ATCC 19615 (MP-19); read-out: MIC
[15] = test system: K. pneumoniae MP-546 Clinical-MDR; assay: CLSI broth dilution MIC determination; type: cell-based; conditions: Klebsiella pneumoniae, read-out: MIC

Question: With C=C1C(=O)[C@H](C)C[C@@](C)(OC)[C@H](O[C@@H]2O[C@H](C)C[C@H](N(C)C)[C@H]2OC(=O)OC)[C@@H](C)C(=O)C(C)C(=O)O[C@H](CC)[C@@]2(C)OC(=O)N(CCCCN=[N+]=[N-])[C@H]12 (stereo partly drawn) as the compound, how does the ring closure, yield of all isomers ([1]; from C=C(C(=O)[C@H](C)C[C@@](C)(OC)[C@H](O[C@@H]1O[C@H](C)C[C@H](N(C)C)[C@H]1OC(=O)OC)[C@@H](C)C1=C(C)C(=O)OC(C)(C)O1)[C@H]1N(CCCCN=[N+]=[N-])C(=O)O[C@]1(C)[C@H](O)CC) read?
Answer: 23%

Question: With CC[C@H]1OC(=O)[C@H](C)C(=O)[C@H](C)[C@@H](O[C@@H]2O[C@H](C)C[C@H](N(C)C)[C@H]2OC(=O)OC)[C@](C)(OC)C[C@@H](C)C(=O)[C@H](C)[C@H]2N(CCCCN=[N+]=[N-])C(=O)O[C@]12C as the compound, how does the ring closure, yield of all isomers ([1]; from CC[C@@H](O)[C@@]1(C)OC(=O)N(CCCCN=[N+]=[N-])[C@@H]1[C@@H](C)C(=O)[C@H](C)C[C@@](C)(OC)[C@H](O[C@@H]1O[C@H](C)C[C@H](N(C)C)[C@H]1OC(=O)OC)[C@@H](C)C1=C(C)C(=O)OC(C)(C)O1, none (thermal, dioxinone to acylketene)) read?
Answer: 52%

Question: With CC[C@H]1OC(=O)[C@@](C)(F)C(=O)[C@H](C)[C@@H](O[C@@H]2OC(C)CC(N(C)C)C2O)[C@](C)(OC)C[C@@H](C)C(=O)[C@H](C)[C@H]2N(CC#CCn3cc(-c4cccc(N)n4)nn3)C(=O)O[C@]12C (stereo partly drawn) [FSM-100573] as the compound, how does the MIC [2] read?
Answer: 1 µg/mL (≈ 1.19 µM)

Question: What about the MIC (P. aeruginosa MP-7 PAO1) of the same compound?
Answer: 32 µg/mL (≈ 38 µM)

Question: And the MIC [3]?
Answer: < 0.03 µg/mL

Question: And the MIC (S. aureus ATCC 29213)?
Answer: 0.06 µg/mL (≈ 0.0713 µM)

Question: And the MIC [4]?
Answer: 16 µg/mL (≈ 19 µM)

Question: What about the MIC [5] of the same compound?
Answer: 64 µg/mL (≈ 76 µM)

Question: What about the MIC (S. aureus USA600, GISA) of the same compound?
Answer: 16 µg/mL (≈ 19 µM)

Question: And the MIC [6]?
Answer: 0.06 µg/mL (≈ 0.0713 µM)

Question: And the MIC (E. coli ATCC 25922)?
Answer: 8 µg/mL (≈ 9.5 µM)

Question: What about the MIC [7] of the same compound?
Answer: 2 µg/mL (≈ 2.38 µM)

Question: What about the MIC (E. coli MP-541 clinical) of the same compound?
Answer: 16 µg/mL (≈ 19 µM)

Question: And the MIC (S. aureus MRSA: USA100)?
Answer: 16 µg/mL (≈ 19 µM)

Question: What about the MIC [8] of the same compound?
Answer: < 0.03 µg/mL

Question: What about the MIC (S. pneumoniae ATCC 49619) of the same compound?
Answer: < 0.03 µg/mL

Question: What about the MIC (S. aureus MRSA: USA300) of the same compound?
Answer: 0.06 µg/mL (≈ 0.0713 µM)

Question: What about the MIC (S. aureus erm A genotype) of the same compound?
Answer: 16 µg/mL (≈ 19 µM)

Question: What about the MIC [9] of the same compound?
Answer: 64 µg/mL (≈ 76 µM)

Question: What about the MIC (P. aeruginosa ATCC 27853) of the same compound?
Answer: 16 µg/mL (≈ 19 µM)

Question: What about the MIC (E. faecalis ATCC 29212) of the same compound?
Answer: < 0.03 µg/mL

Question: What about the MIC [10] of the same compound?
Answer: < 0.03 µg/mL

Question: What about the MIC (K. pneumoniae ATCC 10031) of the same compound?
Answer: 2 µg/mL (≈ 2.38 µM)

Question: And the MIC (A. baumannii ATCC 19606)?
Answer: 2 µg/mL (≈ 2.38 µM)

Question: What about the MIC [11] of the same compound?
Answer: 4 µg/mL (≈ 4.75 µM)

Question: What about the MIC [12] of the same compound?
Answer: 32 µg/mL (≈ 38 µM)

Question: And the “potency compared with solithromycin” value [13]?
Answer: even more potent

Question: And the MIC [14]?
Answer: 16 µg/mL (≈ 19 µM)

Question: What about the MIC (S. pyogenes ATCC 19615) of the same compound?
Answer: < 0.03 µg/mL

Question: And the MIC [15]?
Answer: 64 µg/mL (≈ 76 µM)
